# Assay results: US7767814B2, “Substituted piperidine compounds and methods of their use” (Adolor Corporation, priority 2004, dated 2010)
# Key:
# [1] = biological target: cloned human κ opioid receptor (Homo sapiens, UniProt P41145); conditions: cloned human opioid receptors; background statement; read-out: Ki, inhibition of [3H]diprenorphine binding, κ receptor; cited from earlier work
# [2] = biological target: cloned human δ opioid receptor (Homo sapiens, UniProt P41143); conditions: cloned human opioid receptors; background statement; read-out: Ki, inhibition of [3H]diprenorphine binding, δ receptor; cited from earlier work
# Chain of cloned human δ opioid receptor (P41143 whole entry): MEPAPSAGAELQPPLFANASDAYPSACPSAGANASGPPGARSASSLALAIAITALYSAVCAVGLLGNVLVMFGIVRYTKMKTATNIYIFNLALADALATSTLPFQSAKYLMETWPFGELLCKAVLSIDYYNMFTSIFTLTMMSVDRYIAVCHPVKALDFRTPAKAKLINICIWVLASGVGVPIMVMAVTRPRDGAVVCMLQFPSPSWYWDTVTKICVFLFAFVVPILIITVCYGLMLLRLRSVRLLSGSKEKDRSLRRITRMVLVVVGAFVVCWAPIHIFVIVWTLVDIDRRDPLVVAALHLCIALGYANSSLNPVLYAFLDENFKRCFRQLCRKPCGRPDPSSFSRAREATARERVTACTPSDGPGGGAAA
# [3] = biological target: T1, cloned human μ opioid receptor (Homo sapiens, UniProt P35372); assay: [3H]diprenorphine receptor binding, cloned human μ opioid receptor
# T1 construct: expressed in transfected cells; membranes used
# T1 sequence (P35372 whole entry): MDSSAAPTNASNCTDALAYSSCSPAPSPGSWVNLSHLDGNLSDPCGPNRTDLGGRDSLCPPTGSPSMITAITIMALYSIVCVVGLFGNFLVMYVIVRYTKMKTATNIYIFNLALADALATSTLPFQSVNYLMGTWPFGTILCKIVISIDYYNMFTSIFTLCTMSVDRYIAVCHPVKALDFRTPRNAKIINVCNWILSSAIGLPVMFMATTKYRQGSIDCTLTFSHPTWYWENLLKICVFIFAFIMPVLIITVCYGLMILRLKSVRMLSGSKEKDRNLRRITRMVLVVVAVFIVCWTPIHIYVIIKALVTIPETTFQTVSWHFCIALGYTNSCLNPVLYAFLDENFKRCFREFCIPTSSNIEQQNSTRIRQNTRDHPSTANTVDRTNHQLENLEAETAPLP
# Procedure: IC50 values were obtained by nonlinear analysis of the data using GraphPad Prism version 3.00 for Windows (GraphPad Software, San Diego). Ki values were obtained by Cheng-Prusoff corrections of IC50 values.
# After dilution in buffer A and homogenization as before, membrane proteins (10-80 μg) in 250 μL were added to mixtures containing test compound and [^3H]diprenorphine (0.5 to 1.0 nM, 40,000 to 50,000 dpm) in 250 μL of buffer A in 96-well deep-well polystyrene titer plates (Beckman). […] The filters were rinsed 4 times with 1 mL of cold 50 mM Tris HCl, pH 7.8 and radioactivity remaining on the filters determined by scintillation spectroscopy. Nonspecific binding was determined by the minimum values of the titration curves and was confirmed by separate assay wells containing 10 μM naloxone.
# To determine the equilibrium dissociation constant for the inhibitors (Ki), radioligand bound (cpm) in the presence of various concentrations of test compounds was measured. The concentration to give half-maximal inhibition (EC50) of radioligand binding was determined from a best nonlinear regression fit to the following equation, […]
# Chain of cloned human κ opioid receptor (P41145 whole entry): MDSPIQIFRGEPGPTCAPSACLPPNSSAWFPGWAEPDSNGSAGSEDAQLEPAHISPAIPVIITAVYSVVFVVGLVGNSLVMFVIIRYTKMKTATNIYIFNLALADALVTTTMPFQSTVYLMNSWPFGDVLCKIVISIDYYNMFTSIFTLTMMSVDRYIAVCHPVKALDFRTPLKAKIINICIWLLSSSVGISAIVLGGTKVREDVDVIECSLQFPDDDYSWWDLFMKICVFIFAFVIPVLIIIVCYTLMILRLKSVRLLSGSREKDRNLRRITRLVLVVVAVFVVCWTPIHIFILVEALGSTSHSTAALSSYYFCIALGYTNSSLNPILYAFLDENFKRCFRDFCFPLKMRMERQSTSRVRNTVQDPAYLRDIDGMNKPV
SMILES,Ki [1],Ki [2],Ki [3]
C[C@H]1CN(C[C@H](Cc2ccccc2)C(=O)NCC(=O)O)CC[C@@]1(C)c1cccc(O)c1 [Alvimopan],92 nM,10 nM,–
"C[C@H]1C2CCC[C@]1(c1cccc(O)c1)CCN2C[C@H](Cc1ccccc1)C(=O)NCC(=O)O [Example 2, {2S-Benzyl-3-[5-(3-hydroxy-phenyl)-9-methyl-2-aza-bicyclo[3.3.1]non-2-yl]-propionylamino}-acetic acid]",–,–,1.5 nM
